How the values were obtained:
[1] = test system: PBMC; experiment: Antiproliferative activity against human PBMC; type: cell-based
[2] = test system: PBMC; experiment: Antiproliferative activity against human PBMC upto 100 uM; type: cell-based

| SMILES | IC50 [1] [µM] | Activity [2] |
| --- | --- | --- |
| O=c1ccc2c(O[C@@H]3O[C@H](CO)[C@@H](O)[C@H](O)[C@H]3O)c(O)c3occc3c2o1 | 33.4 | – |
| O=c1ccc2c(O[C@@H]3O[C@H](CO)[C@@H](O)[C@H](O)[C@H]3O)c(O[C@@H]3O[C@H](CO)[C@@H](O)[C@H](O)[C@H]3O)c3occc3c2o1 | – | Not Active |
| O=c1ccc2c(O)c(O[C@@H]3O[C@H](CO)[C@@H](O)[C@H](O)[C@H]3O)c3occc3c2o1 | – | Not Active |
| O=c1ccc2c(O[C@@H]3O[C@H](CO)[C@@H](O)[C@H](O)[C@H]3O)c3ccoc3c(O)c2o1 | – | Not Active |
| O=c1ccc2c(O)c3ccoc3c(O[C@@H]3O[C@H](CO)[C@@H](O)[C@H](O)[C@H]3O)c2o1 | – | Not Active |
| C/C=C/C[C@@H](C)[C@@H](O)[C@H]1C(=O)N[C@@H](CC)C(=O)N(C)CC(=O)N(C)[C@@H](CC(C)C)C(=O)N[C@@H](C(C)C)C(=O)N(C)[C@@H](CC(C)C)C(=O)N[C@@H](C)C(=O)N[C@H](C)C(=O)N(C)[C@@H](CC(C)C)C(=O)N(C)[C@@H](CC(C)C)C(=O)N(C)[C@@H](C(C)C)C(=O)N1C [CYCLOSPORINE] | 0.012 | – |
